The experiment is described as follows: Antioxidant activity assessed as […] radical scavenging activity. It counts as functional. Set-up: concentration or dose not given beside the values.

Molecules are shown by their SMILES.

Regarding `O=c1c(O)c(-c2cccc(O)c2O)oc2ccc(O)cc12`, the Activity was 86.6%. Take `O=c1c(O)c(-c2cc(O)c(O)c(O)c2)oc2cc(O)cc(O)c12`: the Activity worked out at 79.5%. With `O=c1cc(-c2ccc(O)c(O)c2)oc2c(O)c(O)ccc12` the figure was 87.4%. `O=c1c(O)c(-c2ccc(O)cc2)oc2cc(O)cc(O)c12`: the Activity stood at 77.2%. Consider `O=c1c(O)c(-c2ccccc2O)oc2c(O)c(O)ccc12`, for which the Activity is 83.1%. As to `O=c1c(O)c(-c2ccccc2O)oc2cc(O)cc(O)c12`, the Activity was 86.5%. With `O=c1c(O)c(-c2ccccc2O)oc2ccccc12` the figure was 69.3%.

As to `O=c1c(O)c(-c2ccccc2O)oc2ccc(O)cc12`, the Activity stood at 86.8%. With `O=c1cc(-c2ccccc2O)oc2c(O)c(O)ccc12` the figure was 79.9%; with `O=c1c(O)c(-c2ccc(O)c(O)c2)oc2cc(O)cc(O)c12`, 87.8%; with `O=c1c(O)c(-c2ccc(O)c(O)c2)oc2cc(O)ccc12`, 85.2%. To `O=c1cc(-c2cc(O)c(O)c(O)c2)oc2cc(O)cc(O)c12` belongs 88.1%; to `O=c1cc(-c2ccccc2)oc2c(O)c(O)cc(O)c12`, 58.8%. With `O=c1cc(-c2cccc(O)c2O)oc2ccc(O)cc12` the figure was 87.1%; with `O=c1cc(-c2ccc(O)c(O)c2)oc2cc(O)c(O)cc12`, 86.4%; with `O=c1c(O)c(-c2ccc(O)cc2O)oc2ccc(O)cc12`, 86.3%.

As to `O=c1cc(-c2cccc(O)c2)oc2c(O)c(O)ccc12`, the Activity is 87.1%. With `O=c1c(O)c(-c2ccc(O)cc2O)oc2cc(O)cc(O)c12`, the Activity stood at 81.5%. With `O=c1c(O)c(-c2cc(O)c(O)c(O)c2)oc2cc(O)ccc12`, the Activity came out at 79.9%. With `O=c1c(O)c(-c2ccc(O)c(O)c2)oc2ccccc12` the figure was 85.7%. To `O=c1c(O)c(-c2ccccc2)oc2cc(O)cc(O)c12` belongs 52.5%; to `O=c1c(O)c(-c2cc(O)c(O)cc2O)oc2ccc(O)cc12`, 85.6%; to `O=c1c(O)c(-c2ccccc2)oc2cccc(O)c12`, 58.3%. Consider `O=c1cc(-c2cc(O)c(O)c(O)c2)oc2cc(O)ccc12`, for which the Activity amounted to 88.8%. To `O=c1cc(-c2ccc(O)c(O)c2)oc2ccc(O)cc12` belongs 83.9%; to `O=c1c(O)c(-c2ccc(O)c(O)c2)oc2ccc(O)cc12`, 86.7%; to `O=c1c(O)c(-c2ccc(O)c(O)c2)oc2c(O)c(O)cc(O)c12`, 85.4%. For `O=c1cc(-c2ccc(O)cc2)oc2cc(O)c(O)c(O)c12`, the Activity was 69.9%. To `O=c1cc(-c2cc(O)cc(O)c2)oc2ccccc12` belongs 61.8%. With `O=c1cc(-c2ccc(O)c(O)c2)oc2cc(O)ccc12` the figure was 84.9%.

Source of the values: ChEMBL document CHEMBL1221328, “Relationships between structures of hydroxyflavones and their antioxidative effects” (Bioorg Med Chem Lett, 2010).
